Literature values, collected in PubChem BioAssay AID1259409 (Chemical Carcinogenesis Research Information System (CCRIS), 2018).

Tested on: rodent chemically induced tumor inhibition, incidence and multiplicity
Experiment: CCRIS tumor inhibitor studies
Conditions: Dose [Inhibitor]: 0, Route [Inhibitor]: ORAL, Species: RAT

Structure (SMILES): COc1ccc([C@@H]2CC(=O)c3c(O)cc(O[C@@H]4O[C@H](CO[C@@H]5O[C@@H](C)[C@H](O)[C@@H](O)[C@H]5O)[C@@H](O)[C@H](O)[C@H]4O)cc3O2)cc1O
- tumour outcome (control, treated, inhibition, significance) (Carcinogen: 4-NITROQUINOLINE-1-OXIDE, 56-57-5, 500 PPM IN DIET FOR 10 WK BEGINNING 1 WK PRIOR TO CARCINOGEN TREATMENT (STUDY DURATION: 32 WK), Strain/Sex: F344/MALE, Target Tissue: Type of Lesion: TONGUE: CARCINOMA, Dose [Carcinogen]: 20 PPM IN DRINKING WATER FOR 8 WK, Promoter: NONE USED): 13/24 (54%), 4/18 (22%), 59%, p<0.05
- tumour outcome (control, treated, inhibition, significance) (Carcinogen: 4-NITROQUINOLINE-1-OXIDE, 56-57-5, 500 PPM IN DIET FOR 10 WK BEGINNING 1 WK PRIOR TO CARCINOGEN TREATMENT (STUDY DURATION: 32 WK), Strain/Sex: F344/MALE, Target Tissue: Type of Lesion: TONGUE: PAPILLOMA, Dose [Carcinogen]: 20 PPM IN DRINKING WATER FOR 8 WK, Promoter: NONE USED): 4/24 (17%), 2/18 (11%), 35%, not significant
- tumour outcome (control, treated, inhibition, significance) (Carcinogen: 4-NITROQUINOLINE-1-OXIDE, 56-57-5, 500 PPM IN DIET FOR 22 WK BEGINNING 1 WK POST CARCINOGEN TREATMENT (STUDY DURATION: 32 WK), Strain/Sex: F344/MALE, Target Tissue: Type of Lesion: TONGUE: CARCINOMA, Dose [Carcinogen]: 20 PPM IN DRINKING WATER FOR 8 WK, Promoter: NONE USED): 13/24 (54%), 8/19 (42%), 22%, not significant
- tumour outcome (control, treated, inhibition, significance) (Carcinogen: 4-NITROQUINOLINE-1-OXIDE, 56-57-5, 500 PPM IN DIET FOR 22 WK BEGINNING 1 WK POST CARCINOGEN TREATMENT (STUDY DURATION: 32 WK), Strain/Sex: F344/MALE, Target Tissue: Type of Lesion: TONGUE: PAPILLOMA, Dose [Carcinogen]: 20 PPM IN DRINKING WATER FOR 8 WK, Promoter: NONE USED): 4/24 (17%), 1/19 (5%), 71%, not significant
- tumour outcome (control, treated, inhibition, significance) (Carcinogen: 4-NITROQUINOLINE-1-OXIDE, 56-57-5, 1000 PPM IN DIET FOR 10 WK BEGINNING 1 WK PRIOR TO CARCINOGEN TREATMENT (STUDY DURATION: 32 WK), Strain/Sex: F344/MALE, Target Tissue: Type of Lesion: TONGUE: PAPILLOMA, Dose [Carcinogen]: 20 PPM IN DRINKING WATER FOR 8 WK, Promoter: NONE USED): 8/17 (47%), 1/19 (5%), 89%, p<0.01
- tumour outcome (control, treated, inhibition, significance) (Carcinogen: 4-NITROQUINOLINE-1-OXIDE, 56-57-5, 1000 PPM IN DIET FOR 10 WK BEGINNING 1 WK PRIOR TO CARCINOGEN TREATMENT (STUDY DURATION: 32 WK), Strain/Sex: R344/MALE, Target Tissue: Type of Lesion: TONGUE: SQUAMOUS CELL CARCINOMA, Dose [Carcinogen]: 20 PPM IN DRINKING WATER FOR 8 WK, Promoter: NONE USED): 11/17 (65%), 3/19 (16%), 75%, p<0.005
- tumour outcome (control, treated, inhibition, significance) (Carcinogen: 4-NITROQUINOLINE-1-OXIDE, 56-57-5, 1000 PPM IN DIET FOR 22 WK BEGINNING 1 WK POST CARCINOGEN TREATMENT (STUDY DURATION: 32 WK), Strain/Sex: F344/MALE, Target Tissue: Type of Lesion: TONGUE: PAPILLOMA, Dose [Carcinogen]: 20 PPM IN DRINKING WATER FOR 8 WK, Promoter: NONE USED): 8/17 (47%), 2/20 (10%), 79%, p<0.05
- tumour outcome (control, treated, inhibition, significance) (Carcinogen: 4-NITROQUINOLINE-1-OXIDE, 56-57-5, 1000 PPM IN DIET FOR 22 WK BEGINNING 1 WK POST CARCINOGEN TREATMENT (STUDY DURATION: 32 WK), Strain/Sex: F344/MALE, Target Tissue: Type of Lesion: TONGUE: SQUAMOUS CELL CARCINOMA, Dose [Carcinogen]: 20 PPM IN DRINKING WATER FOR 8 WK, Promoter: NONE USED): 11/17 (65%), 5/20 (25%), 62%, p<0.05
- tumour outcome (control, treated, inhibition, significance) (Carcinogen: AZOXYMETHANE, 25843-45-2, 0.1% IN DIET FOR 4 WK BEGINNING 1 WK PRIOR TO CARCINOGEN TREATMENT (STUDY DURATION: 32 WK), Strain/Sex: F344/MALE, Target Tissue: Type of Lesion: COLON: ADENOCARCINOMA, Dose [Carcinogen]: 15 MG/KG BW 1/WK FOR 3 WK, Promoter: NONE): 70%, 5%, 93%, p<0.001
- tumour outcome (control, treated, inhibition, significance) (Carcinogen: AZOXYMETHANE, 25843-45-2, 0.1% IN DIET FOR 28 WK BEGINNING 1 WK POST LAST CARCINOGEN DOSE (STUDY DURATION: 32 WK), Strain/Sex: F344/MALE, Target Tissue: Type of Lesion: COLON: ADENOCARCINOMA, Dose [Carcinogen]: 15 MG/KG BW 1/WK FOR 3 WK, Promoter: NONE): 70%, 17%, 76%, p<0.005
- tumour outcome (control, treated, inhibition, significance) (Carcinogen: AZOXYMETHANE, 25843-45-2, 1000 PPM IN DIET FOR 4 WK BEGINNING 1 WK PRIOR TO CARCINOGEN TREATMENT (STUDY DURATION: 32 WK), Strain/Sex: F344/MALE, Target Tissue: Type of Lesion: LARGE INTESTINE: TUMOR, Dose [Carcinogen]: 15 MG/KG BW 1/WK FOR 3 WK, Promoter: NONE USED): 12/17 (71%), 3/19 (16%), 77%, p<0.001
- tumour outcome (control, treated, inhibition, significance) (Carcinogen: AZOXYMETHANE, 25843-45-2, 1000 PPM IN DIET FOR 4 WK BEGINNING 1 WK PRIOR TO CARCINOGEN TREATMENT (STUDY DURATION: 32 WK), Strain/Sex: F344/MALE, Target Tissue: Type of Lesion: SMALL INTESTINE: TUMOR, Dose [Carcinogen]: 15 MG/KG BW 1/WK FOR 3 WK, Promoter: NONE USED): 5/17 (29%), 1/19 (5%), 83%, not significant
- tumour outcome (control, treated, inhibition, significance) (Carcinogen: AZOXYMETHANE, 25843-45-2, 1000 PPM IN DIET FOR 28 WK BEGINNING 1 WK POST CARCINOGEN TREATMENT (STUDY DURATION: 32 WK), Strain/Sex: F344/MALE, Target Tissue: Type of Lesion: LARGE INTESTINE: TUMOR, Dose [Carcinogen]: 15 MG/KG BW 1/WK FOR 3 WK, Promoter: NONE USED): 12/17 (71%), 3/20 (15%), 79%, p<0.001
